Our source for the IC50 and Ratio IC50 values is ChEMBL document CHEMBL2203174, “SAR Development of Lysine-Based Irreversible Inhibitors of Transglutaminase 2 for Huntington's Disease” (ACS Med Chem Lett, 2012).

Molecules are shown by their SMILES.

The target in experiment [1] is T1, Protein-glutamine gamma-glutamyltransferase (Homo sapiens, UniProt P21980).
T1 sequence (P21980 whole entry): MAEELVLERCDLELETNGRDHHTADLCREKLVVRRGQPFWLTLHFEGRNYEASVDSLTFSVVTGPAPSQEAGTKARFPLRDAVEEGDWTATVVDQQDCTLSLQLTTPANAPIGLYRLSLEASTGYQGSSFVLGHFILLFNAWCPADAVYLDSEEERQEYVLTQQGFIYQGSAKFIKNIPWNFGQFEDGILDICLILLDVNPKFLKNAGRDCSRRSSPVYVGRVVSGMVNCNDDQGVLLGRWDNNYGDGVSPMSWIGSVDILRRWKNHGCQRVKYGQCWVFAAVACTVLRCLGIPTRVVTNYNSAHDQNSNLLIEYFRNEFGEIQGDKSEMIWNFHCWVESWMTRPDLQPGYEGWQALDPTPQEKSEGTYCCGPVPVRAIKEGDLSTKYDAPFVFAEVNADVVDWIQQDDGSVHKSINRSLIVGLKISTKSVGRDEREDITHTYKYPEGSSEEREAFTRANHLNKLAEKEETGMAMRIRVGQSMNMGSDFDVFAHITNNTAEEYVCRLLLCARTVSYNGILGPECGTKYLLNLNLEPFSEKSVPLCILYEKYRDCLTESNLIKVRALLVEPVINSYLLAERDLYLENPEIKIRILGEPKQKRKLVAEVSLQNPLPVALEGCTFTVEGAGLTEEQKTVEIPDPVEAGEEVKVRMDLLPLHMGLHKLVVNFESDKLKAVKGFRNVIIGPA
In words: Irreversible inhibition of transglutaminase 2.

A short description of experiment [2]: Ratio of IC50 for mouse transglutaminase 2 to IC50 for human transglutaminase 2.
The target of experiment [3] is T2, Protein-glutamine gamma-glutamyltransferase K (Homo sapiens, UniProt P22735).
T2 sequence (P22735 whole entry): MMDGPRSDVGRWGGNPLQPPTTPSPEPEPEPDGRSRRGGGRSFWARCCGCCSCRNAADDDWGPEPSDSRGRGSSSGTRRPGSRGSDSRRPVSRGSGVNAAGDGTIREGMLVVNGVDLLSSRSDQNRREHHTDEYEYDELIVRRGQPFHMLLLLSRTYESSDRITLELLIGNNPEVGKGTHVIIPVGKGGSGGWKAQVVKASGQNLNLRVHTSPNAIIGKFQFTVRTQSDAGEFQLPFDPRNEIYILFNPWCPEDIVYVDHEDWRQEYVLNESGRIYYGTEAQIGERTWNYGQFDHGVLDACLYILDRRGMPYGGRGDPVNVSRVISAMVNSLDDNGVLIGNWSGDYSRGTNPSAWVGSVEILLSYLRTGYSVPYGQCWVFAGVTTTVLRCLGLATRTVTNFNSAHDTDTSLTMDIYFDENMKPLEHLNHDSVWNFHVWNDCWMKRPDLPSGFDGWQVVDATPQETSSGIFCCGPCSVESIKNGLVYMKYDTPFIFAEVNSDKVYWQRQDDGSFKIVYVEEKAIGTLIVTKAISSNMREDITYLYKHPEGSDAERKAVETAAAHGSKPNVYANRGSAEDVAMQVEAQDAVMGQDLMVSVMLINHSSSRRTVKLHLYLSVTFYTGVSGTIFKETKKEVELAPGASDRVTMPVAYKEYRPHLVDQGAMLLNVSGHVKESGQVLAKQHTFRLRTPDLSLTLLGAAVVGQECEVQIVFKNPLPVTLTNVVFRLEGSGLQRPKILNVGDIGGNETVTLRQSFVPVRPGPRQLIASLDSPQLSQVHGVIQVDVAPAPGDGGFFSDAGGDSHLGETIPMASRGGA
The experiment is described as follows: Inhibition of transglutaminase 1.

Experiment [4] addresses T3, Coagulation factor XIII A chain (Homo sapiens, UniProt P00488).
T3 sequence (P00488 whole entry): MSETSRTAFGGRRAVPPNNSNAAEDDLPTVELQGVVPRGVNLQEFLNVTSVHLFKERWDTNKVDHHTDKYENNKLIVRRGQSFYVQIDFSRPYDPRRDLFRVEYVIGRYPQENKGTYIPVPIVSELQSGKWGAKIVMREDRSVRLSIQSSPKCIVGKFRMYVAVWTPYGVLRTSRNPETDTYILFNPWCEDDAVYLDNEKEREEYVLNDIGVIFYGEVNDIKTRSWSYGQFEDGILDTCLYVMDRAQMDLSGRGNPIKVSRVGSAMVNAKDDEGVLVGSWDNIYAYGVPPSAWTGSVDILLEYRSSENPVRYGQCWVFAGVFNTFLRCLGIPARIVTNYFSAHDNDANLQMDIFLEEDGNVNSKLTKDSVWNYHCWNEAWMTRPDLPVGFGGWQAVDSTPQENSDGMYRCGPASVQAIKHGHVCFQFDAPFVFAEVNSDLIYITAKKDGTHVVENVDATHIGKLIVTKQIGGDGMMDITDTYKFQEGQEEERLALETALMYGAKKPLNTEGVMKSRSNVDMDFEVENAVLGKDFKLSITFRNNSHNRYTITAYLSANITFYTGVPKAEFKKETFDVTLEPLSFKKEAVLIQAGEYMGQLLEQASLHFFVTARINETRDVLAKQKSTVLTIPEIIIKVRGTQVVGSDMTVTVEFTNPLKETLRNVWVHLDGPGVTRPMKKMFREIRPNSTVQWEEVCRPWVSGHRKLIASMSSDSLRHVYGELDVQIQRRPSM
The experiment is described as follows: Inhibition of coagulation factor 13a.

Experiment [5] addresses T4, Protein-glutamine gamma-glutamyltransferase E (Homo sapiens, UniProt Q08188).
T4 sequence (Q08188 whole entry): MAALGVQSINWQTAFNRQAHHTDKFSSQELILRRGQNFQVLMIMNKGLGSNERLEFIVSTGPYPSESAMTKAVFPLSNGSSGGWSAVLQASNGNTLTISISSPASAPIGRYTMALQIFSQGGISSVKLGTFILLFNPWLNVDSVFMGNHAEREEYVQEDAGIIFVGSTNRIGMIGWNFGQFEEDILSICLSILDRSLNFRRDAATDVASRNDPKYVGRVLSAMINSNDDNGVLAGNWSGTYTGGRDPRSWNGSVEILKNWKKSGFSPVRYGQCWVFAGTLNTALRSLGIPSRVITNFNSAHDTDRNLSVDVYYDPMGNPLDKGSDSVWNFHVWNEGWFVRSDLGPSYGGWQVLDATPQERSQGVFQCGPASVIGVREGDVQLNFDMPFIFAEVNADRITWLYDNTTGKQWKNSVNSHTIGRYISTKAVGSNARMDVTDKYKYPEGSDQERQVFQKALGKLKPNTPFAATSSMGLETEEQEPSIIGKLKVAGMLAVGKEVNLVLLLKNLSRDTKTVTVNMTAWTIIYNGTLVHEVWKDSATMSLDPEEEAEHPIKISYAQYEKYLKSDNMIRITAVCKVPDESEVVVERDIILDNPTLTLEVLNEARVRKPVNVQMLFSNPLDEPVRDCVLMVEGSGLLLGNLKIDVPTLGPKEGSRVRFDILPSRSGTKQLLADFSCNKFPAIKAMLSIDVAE
The experiment is described as follows: Inhibition of transglutaminase 3.

In general, IC50 refers to the midpoint of a concentration-inhibition curve. Low readings indicate higher potency, high ones lower potency.

Take `C=CC(=O)NCCCC[C@H](NC(=O)OCc1ccc(F)cc1)C(=O)O`: in experiment [1], the IC50 is 7900 nM.

With `C=CC(=O)NCCC1C[C@@H](C(=O)N2CCN(c3cccc(C)n3)CC2)N(C(=O)OC(C)(C)C)C1` (mixture of isomers), the IC50 in experiment [1] stood at 1800 nM.

`C=CC(=O)NCCCC[C@H](NC(=O)OCc1c(F)cccc1F)C(=O)O` yielded an IC50 in experiment [1] of 10000 nM.

Compound `C=CC(=O)NCCCC[C@H](NC(=O)OCc1ccccc1Cl)C(=O)O` yielded an IC50 in experiment [1] of 1900 nM.

As to `C=CC(=O)NCCCC[C@H](NC(=O)OCc1ccc(C(C)(C)C)cc1)C(=O)O`, the IC50 in experiment [1] was 21000 nM.

On to `C=CC(=O)NCCCC[C@H](NC(=O)OCc1ccccc1)C(=O)N1CCOCC1`, for which the midpoint of inhibition in experiment [1], the IC50, lay at 730 nM.

In experiment [1], `C=CC(=O)NCCCC[C@H](NC(=O)OCc1ccc(CCCC)cc1)C(=O)O` returned an IC50 of 5900 nM.

For `C=CC(=O)NCCCC[C@H](NC(=O)OCc1ccccc1)C(=O)N1CCCCCC1`, it took 590 nM to reach half-maximal inhibition in experiment [1] (IC50).

In experiment [1], `C=CC(=O)NCCCC[C@H](NC(=O)c1ccc2ccccc2c1)C(=O)N1CCN(c2cccc(C)n2)CC1` gave an IC50 of 1600 nM.

In experiment [1], `C=CC(=O)NCCCC[C@H](NC(=O)OCc1ccc(C(F)(F)F)cc1)C(=O)O` gave an IC50 of 33000 nM.

For `C=CC(=O)NCCCC[C@H](NC(=O)OCc1ccccc1)C(=O)N1Cc2ccccc2C1`, inhibition in experiment [1] was half-maximal at 240 nM (IC50).

For `C=CC(=O)NCCCC[C@H](NC(=O)OCc1ccccc1C(F)(F)F)C(=O)O`, the half-maximal inhibitory concentration (IC50) in experiment [1] amounted to 3500 nM.

Regarding `C=CC(=O)NCCCC[C@H](NC(=O)OCc1ccccc1)C(=O)N(CC)CC`, half-maximal inhibition in experiment [1] (IC50) required 1400 nM.

Take `C=CC(=O)NCCCC[C@H](NC(=O)OCc1ccc([N+](=O)[O-])cc1)C(=O)O`: the IC50 in experiment [1] is 62000 nM.

In turn, `C=CC(=O)NCCCC[C@H](NC(C)=O)C(=O)N1CCN(c2cccc(C)n2)CC1` had an IC50 in experiment [1] of 190 nM.

Consider `C=CC(=O)NCCCC[C@H](NC(=O)OCc1ccccc1)C(=O)N1CCN(c2cc(Cl)ccc2OC)CC1`, for which the Ratio IC50 in experiment [2] was found to be 2. In experiment [1], this compound registered an IC50 of 78 nM.

As for `C=CC(=O)NCCCC[C@H](NC(=O)OCc1ccccc1)C(=O)N1CCN(c2ccccn2)CC1`, in experiment [2], the Ratio IC50 is 2. For the same compound, inhibition in experiment [1] was half-maximal at 260 nM (IC50).

`C=CC(=O)NCCCC[C@H](NC(=O)OCc1ccccc1)C(=O)N1CCN(c2ncccc2C(F)(F)F)CC1`: the Ratio IC50 in experiment [2] was 2. In experiment [1], this compound showed a half-inhibitory concentration (IC50) of 160 nM.

Take `C=CC(=O)NCCCC[C@H](NC(=O)OCc1ccc2ccccc2c1)C(=O)O`: in experiment [1], the IC50 amounted to 9100 nM.

Consider `C=CC(=O)NCCCC[C@H](NC(=O)OCc1ccccc1)C(=O)N1CCN(c2ccc(C(F)(F)F)cn2)CC1`, for which the Ratio IC50 in experiment [2] amounted to 2. Further, the IC50 in experiment [1] stood at 110 nM.

Compound `C=CC(=O)NCCCC[C@H](NC(=O)OC(C)(C)C)C(=O)N1CCN(c2cccc(C)n2)CC1` displayed an IC50 in experiment [1] of 850 nM.

`C=CC(=O)NCCCC[C@H](NC(=O)OCc1ccccc1)C(=O)N(C)C` gave an IC50 in experiment [1] of 1100 nM.

For the compound `C=CC(=O)NCCCC[C@H](NC(=O)OCc1cccc(C(F)(F)F)c1)C(=O)O`, in experiment [1], it took 10000 nM to reach half-maximal inhibition (IC50).

For the compound `C=CC(=O)NCCCC[C@H](NC(=O)OCc1ccccc1)C(=O)N1CCC(c2ccccc2)CC1`, the IC50 in experiment [3] was 9300 nM; in experiment [4], 21000 nM; in experiment [1], 54 nM; in experiment [5] it was above 80000 nM.

As for `C=CC(=O)NCCCC[C@H](NC(=O)OCc1ccccc1)C(=O)N1CCCC1`, the IC50 in experiment [1] stood at 580 nM.

In experiment [1], `C=CC(=O)NCCCCCNC(=O)OCc1ccccc1` showed an IC50 of 7600 nM.

In experiment [1], `C=CC(=O)NCCCC[C@H](NC(=O)OCc1ccccc1)C(=O)O` returned an IC50 of 2700 nM.

Consider `C=CC(=O)NCCCC[C@H](NC(=O)OCc1ccccc1)C(=O)N1CCN(c2cccc(C)n2)CC1`, for which the Ratio IC50 in experiment [2] was 2. In experiment [1], this compound registered an IC50 of 55 nM.

Regarding `C=CC(=O)NCCCC[C@H](NC(=O)OCc1ccccc1)C(=O)N1CCN(C)CC1`, in experiment [2], the Ratio IC50 stood at 2. Besides, in experiment [1], the IC50 came to 610 nM.

With `C=CC(=O)NCCCC[C@H](NC(=O)OCc1ccccc1)C(=O)N1CCC(F)(F)CC1`, the IC50 in experiment [1] was found to be 660 nM.

As to `C=CC(=O)NCCCC[C@H](NC(=O)OCc1ccccc1)C(=O)N1CCC1`, the IC50 in experiment [1] turned out to be 2500 nM.

In experiment [1], `C=CC(=O)NCCCC[C@H](NC(=O)OCc1ccccc1)C(=O)N1CCCCC1` displayed an IC50 of 1200 nM.

As for `C=CC(=O)NCCCC[C@H](NC(=O)OCc1ccc(C)cc1)C(=O)O`, the IC50 in experiment [1] amounted to 14000 nM.

Turning to `C=CC(=O)NCCCC[C@H](NC(=O)OCc1ccccc1)C(=O)N1CCN(c2ncccc2C)CC1`, the Ratio IC50 in experiment [2] amounted to 2. Further, in experiment [1], the IC50 amounted to 170 nM.

Take `C=CC(=O)NCCCC[C@H](NC(=O)c1ccccc1)C(=O)N1CCN(c2cccc(C)n2)CC1`: in experiment [1], the IC50 was 190 nM.

On to `C=CC(=O)Nc1ccc(C[C@H](NC(=O)OCc2ccccc2)C(=O)O)cc1`, for which, in experiment [1], the IC50 is above 80000 nM.

In experiment [1], `C=CC(=O)NCCCC[C@H](NC(=O)OC)C(=O)O` registered an IC50 above 80000 nM.

In turn, `C=CC(=O)N1CCC(C[C@H](NC(=O)OC(C)(C)C)C(=O)O)CC1` gave an IC50 in experiment [1] above 80000 nM.

The compound `C=CC(=O)NCCCC[C@@H](CO)NC(=O)OCc1ccccc1` yielded an IC50 in experiment [1] of 5400 nM.

For `C=CC(=O)NCCCC[C@H](NC(=O)OCc1cccc2ccccc12)C(=O)O`, half-maximal inhibition in experiment [1] (IC50) was put at 14000 nM.

As to `C=CC(=O)NCCCC[C@H](NC(=O)OCc1ccccc1)C(=O)N1CCN(c2ccc3ccccc3c2)CC1`, the Ratio IC50 in experiment [2] turned out to be 2. In experiment [1], this compound showed a concentration for half-maximal inhibition (IC50) of 230 nM.
